Read-outs that look alike come from different tables or passages of the source.
Assays:
[1] = molecular target: T1, 5-HT2A receptor (Homo sapiens, UniProt P28223); assay: radioligand competitive binding assay, affinity for the 5-HT2A receptor; conditions: [3H]-LSD competition, 293T membranes transiently expressing 5-HT2A receptor
[2] = molecular target: T1, 5-HT2A receptor; assay: 5-HT2A receptor downstream β-arrestin2 recruitment in HEK-293T cells; assay type: cell-based; parameters: expressed in transfected cells; host or cells: HEK-293T (ATCC, CRL-11268); conditions: for β-arrestin2 signaling agonistic activity (% in parentheses): HEK-293T, percentage printed in parentheses beside the nM value, not defined; for signaling pathway selectivity at the 5-HT2A receptor (β-arrestin2 versus G protein): statement on Table 2
Protocol: (§1) On the second day, the confluent cells from a 6 cm culture dish were digested and reseeded into a 96-well plate at a volume of 100 μL of culture medium per well. On the third day, the drugs were added for testing. The 96-well plate was taken out from the cell incubator to decant the culture medium. 40 μL of the substrate coelenterazine 400a (final concentration 5 μM) was added to each well, and then 20 μL of different drugs were added sequentially from left to right, ensuring that the final concentration of the drug decreased gradually from bottom to top, with two replicates per treatment. Finally, the prepared samples were loaded on a plate reader for signal quantification. The readout values reflected the recruitment of β-arrestin2 to the membrane or the dissociation of G protein trimer. The former indicated the degree of activation of the downstream β-arrestin2 signaling pathway mediated by the 5-HT2A receptor, and the latter indicated the degree of activation of the downstream G protein signaling pathway mediated by the 5-HT2A receptor.

[3] = 10 mg/kg IP, male C57 mice
Protocol: The concentration of the compound in mouse plasma was determined using LC-MS/MS, and the relevant pharmacokinetic parameters were calculated to investigate the pharmacokinetic characteristics of the compound in mice.
Experimental design: 60 male C57 mice (purchased from Suzhou JOINN Laboratory Animal Co., Ltd.) were randomly divided into groups based on weight, with 3 mice per group. The mice were fasted with water ad libitum for 12 to 14 hours one day before test-article administration and fed 4 hours after the administration. The route of administration was intraperitoneal (IP), with a dosing concentration of 1 mg/mL, and a solvent formulation of 10% DMSO+90% saline.
Sample collection: 0.1 mL of blood was collected from the orbit under isoflurane anesthesia before and after test-article administration, transferred to EDTA K2 tubes, and placed on an ice bath. The samples were centrifuged at 5000 rpm for 10 minutes at 4° C., and the plasma was collected. […] Prior to analysis, all plasma samples were stored at −80° C.
Data processing: Drug concentrations in plasma and brain tissues were measured using LC-MS (API4000QTRAP triple quadrupole tandem mass spectrometer, equipped with an electrospray ionization source (ESI)). The data collection and control system software utilized was Analyst 1.5.1 (Applied Biosystems). The sample peak integration in the spectrum was conducted automatically; the ratio of the sample peak area to the internal standard peak area was used as an indicator to perform regression with the concentration of the sample. Regression method: Linear regression with a weighting factor of 1/X^2. Pharmacokinetic parameters were analyzed using a non-compartmental model in WinNonlin Professional v6.3 (Pharsight, USA). Cmax is the measured maximum plasma concentration, the area under the plasma concentration-time curve (AUC(0→t)) was calculated by the trapezoidal method, and Tmax is the time to reach peak plasma concentration after administration. Experimental data are presented as “Mean±Standard Deviation” (Mean±SD, n≥3) or “Mean” (n=2).

[4] = tested on: C57BL/6J mice; assay: head-twitch response in mice (hallucinogenic effects); assay type: in vivo; conditions: intraperitoneal injection, first 30 minutes, all doses tested
Excerpt: Method: The head-twitch response in mice was detected via oscillatory signals to characterize hallucinogenic effects. Mice (strain C57BL/6J, purchased from Shanghai Lingchang Biotech Co., Ltd.) were anesthetized with 2% isoflurane. A small portion of the scalp was removed from the center of the dorsal cranium. A custom-made small neodymium magnet (4 mm×4 mm×2 mm) was attached to the center of the dorsal cranium using dental resin. The magnet N-S poles were kept parallel to the dorsoventral aspect of the implant. The mice were allowed to recover for 1 week before testing. To record precise head movements, the mice were placed in a glass beaker with a diameter of 12 cm, surrounded by 150 turns of #30 enameled copper wire. The output signal from the coil was recorded using a PowerLab/4SP instrument installed with LabChart V8.1.16 software. Coil voltage was amplified, low-pass filtered at 10 kHz to remove radio frequency interference, and sampled at 40 kHz. For the detection of head-twitch response in mice, LabChart data were processed with a digital band-pass filter at 40 to 200 Hz. The head-twitch response in mice was identified by searching for sinusoidal wavelets that met the following criteria: 1) containing more than two bipolar peaks; 2) amplitude exceeding background noise level; 3) duration less than 120 milliseconds. 1 hour prior to the test, the mice were transferred to the test room for acclimatization. Subsequently, the mice were placed in the beaker for 30 minutes, and baseline head-twitch response values were recorded. Immediately after baseline recording, the mice were injected intraperitoneally with the test compound, and head-twitch response values were recorded for 1 to 2 hours post-dose, depending on the compound used. Statistical values were taken from the first 30 minutes.

[5] = tested on: C57BL/6J wild-type mice, acute restraint stress; assay: tail suspension test (TST) after acute restraint stress; assay type: in vivo; conditions: 5 h acute restraint stress, intraperitoneal injection, test after 30 minutes
Protocol: (§2) Method: Acute restraint stress (ARS) is frequently used to induce a depressive state in mice. The forced swim test (FST) and tail suspension test (TST) are currently the most commonly used models for inferring “depression-like” behaviors. C57BL/6J wild-type mice (over 8 weeks old, purchased from Shanghai Lingchang Biotech Co., Ltd.) were restrained individually in a rodent restraint device for 5 hours. The mice were restricted from all body movements, but only minimal pain was introduced. During the ARS experiment, the mice were deprived of both food and water. After 5 hours of restraint, a separate group of mice was released and immediately injected intraperitoneally with the test compound. After 30 minutes of recovery, the behavioral changes of the mice were assessed through the Forced Swim Test (FST) or Tail Suspension Test (TST). […] All mice were forced to swim for 6 minutes, and their behavior was recorded using a video camera. The immobility time during the last 4 minutes of the test was recorded. […] In the TST, mice in the control group and those subjected to restraint stress were suspended by their tails with tape for 6 minutes, and their behavior was recorded using a video camera. The immobility time during the last 4 minutes was manually timed and assessed by an observer who was unaware of the treatment conditions.

[6] = tested on: C57BL/6J wild-type mice, acute restraint stress; assay: forced swim test (FST) after acute restraint stress; assay type: in vivo; conditions: 5 h acute restraint stress, intraperitoneal injection, test after 30 minutes
Protocol: as §2

[7] = molecular target: T2, dopamine D2 receptor (Homo sapiens, UniProt P14416); assay: radioligand competitive binding assay, affinity for the dopamine D2 receptor
T2 construct: expressed in transfected cells; host or cells: HEK-293T (ATCC, CRL-11268)
Protocol: Method: The affinity of the compounds of the present disclosure for the dopamine D2 receptor was determined using a radioligand competitive binding assay as follows. In the first step, a cell membrane component containing dopamine D2 receptor was prepared. […] 48 hours post-transfection, the 10 cm culture dish was taken out from the cell incubator and the cultured cells had expressed the dopamine D2 receptor. The culture medium was aspirated using a vacuum pump, and 3 mL of lysis buffer was added to each culture dish. The cells were then placed in a cold room at 4° C. for 10 minutes. After the cells were detached, they were transferred to a 15 mL centrifuge tube and centrifuged at 1500 rpm for 5 minutes at 4° C., and the supernatant was discarded. The cell pellet was transferred to a tissue homogenizer, and 3 mL of lysis buffer was added. Sufficient grinding was applied to break the cells. The cell suspension was then equally aliquoted into several Eppendorf tubes and centrifuged at 12000 rpm for 5 minutes at 4° C., and the supernatant was discarded. The resulting precipitate was the cell membrane component containing the dopamine D2 receptor. […] The machine readout value reflected the amount of [3H]-Methylspiperone bound on the membrane, and after further data processing, the affinity Ki values of different compounds for the dopamine D2 receptor were obtained.

[8] = molecular target: T1, 5-HT2A receptor; assay: 5-HT2A receptor downstream G protein (Gq) signaling, G protein trimer dissociation in HEK-293T cells; assay type: cell-based; parameters: expressed in transfected cells; host or cells: HEK-293T (ATCC, CRL-11268); conditions: percentage printed in parentheses beside the nM value, not defined
Protocol: as §1

[9] = depressive episodes associated with bipolar I or II disorder; Calabrese et al. 2021; cited from earlier work
[10] = read-out: Ki, affinity for the 5-HT2A receptor
[11] = Ki, affinity for the 5-HT2A receptor

T1 sequence (P28223 whole entry): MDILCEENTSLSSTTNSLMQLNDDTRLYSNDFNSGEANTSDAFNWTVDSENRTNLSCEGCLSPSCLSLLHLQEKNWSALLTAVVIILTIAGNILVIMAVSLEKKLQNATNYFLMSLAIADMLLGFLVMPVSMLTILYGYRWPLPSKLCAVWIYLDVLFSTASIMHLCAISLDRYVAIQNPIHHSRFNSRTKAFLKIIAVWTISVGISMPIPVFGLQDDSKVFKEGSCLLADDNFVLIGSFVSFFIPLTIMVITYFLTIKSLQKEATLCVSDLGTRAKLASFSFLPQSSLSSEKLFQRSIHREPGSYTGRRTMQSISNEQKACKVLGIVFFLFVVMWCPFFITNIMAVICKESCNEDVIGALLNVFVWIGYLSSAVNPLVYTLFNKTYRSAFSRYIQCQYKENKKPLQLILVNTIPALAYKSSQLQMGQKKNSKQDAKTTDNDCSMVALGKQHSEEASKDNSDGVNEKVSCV
T2 sequence (P14416 whole entry, species assumed): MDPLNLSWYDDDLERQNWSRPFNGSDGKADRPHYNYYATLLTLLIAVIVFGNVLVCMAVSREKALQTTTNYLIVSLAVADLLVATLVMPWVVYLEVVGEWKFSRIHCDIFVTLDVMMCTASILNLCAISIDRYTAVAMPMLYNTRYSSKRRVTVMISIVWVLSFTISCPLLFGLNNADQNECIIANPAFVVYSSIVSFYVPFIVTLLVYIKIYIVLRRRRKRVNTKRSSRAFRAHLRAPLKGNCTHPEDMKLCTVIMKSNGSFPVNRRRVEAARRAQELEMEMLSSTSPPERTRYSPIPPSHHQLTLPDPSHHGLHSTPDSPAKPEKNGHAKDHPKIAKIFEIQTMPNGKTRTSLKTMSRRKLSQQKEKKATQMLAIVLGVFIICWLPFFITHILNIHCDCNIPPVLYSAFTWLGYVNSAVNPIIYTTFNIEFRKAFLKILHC

## COc1cccc(CCN2CC[C@H]3[C@@H](C2)c2cccc4c2N3CCN4C)c1OC [I-6]
[1]; [10]
  Ki: 5240 nM

## COc1ccccc1CCCN1CC[C@@H]2[C@H](C1)c1cccc3c1N2CCCS3 [I-27]
[2]
  β-arrestin2 signaling agonistic activity (% in parentheses): (35.7%)
  signaling pathway selectivity at the 5-HT2A receptor (β-arrestin2 versus G protein): selectively activate the recruitment of β-arrestin2 mediated by the 5-HT2A receptor, without activating the G protein signaling pathway

## COc1ccccc1CCCN1CCC2C(C1)c1cccc3c1N2CCCN3C (single isomer, unassigned) [I-15]
[2]
  β-arrestin2 signaling agonistic activity (% in parentheses): (24.3%)
  signaling pathway selectivity at the 5-HT2A receptor (β-arrestin2 versus G protein): selectively activate the recruitment of β-arrestin2 mediated by the 5-HT2A receptor, without activating the G protein signaling pathway
[1]; [11]
  Ki: 7 nM

## COc1ccccc1CCCN1CC[C@H]2[C@@H](C1)c1cccc3c1N2CCN3C [I-10]
[3]; brain
  AUC0-inf: 1346 h · ng · mL^−1 or ng · g^−1
  AUC0-t: 1335 h · ng · mL^−1 or ng · g^−1
  AUMC0-inf: 2054 h · h · ng · mL^−1 or ng · g^−
  AUMC0-t: 1979 h · h · ng · mL^−1 or ng · g^−
  Cmax: 566 ng/g
  MRT: 91.8 min
  T1/2: 48.1 min
  tmax: 30 min
[3]; plasma
  AUC0-inf: 582 ng·h/mL
  AUC0-t: 576 ng·h/mL
  Cmax: 225 ng/mL
  MRT: 127 min
  T1/2: 63.6 min
  tmax: 4.98 min
[2]
  β-arrestin2 signaling agonistic activity (% in parentheses): (12.7%)
[4]
  hallucinogenic effects (head-twitch response): did not induce hallucinogenic effects
[5]
  antidepressant effect in the TST (immobility time): significant antidepressant effect
[6]
  antidepressant effect in the FST (immobility time): significant antidepressant effect
[1]; [10]
  Ki: 13 nM
[7]
  affinity for the dopamine receptor, in words: weak affinity

## COc1ccccc1CCCN1CCC2C(C1)c1cccc3c1N2CCC3 (single isomer, unassigned) [I-19]
[2]
  β-arrestin2 signaling agonistic activity (% in parentheses): (59.4%)
  signaling pathway selectivity at the 5-HT2A receptor (β-arrestin2 versus G protein): selectively activate the recruitment of β-arrestin2 mediated by the 5-HT2A receptor, without activating the G protein signaling pathway

## COc1ccc(CCN2CC[C@H]3[C@@H](C2)c2cccc4c2N3CCN4C)cc1 [I-5]
[2]
  β-arrestin2 signaling agonistic activity (% in parentheses): (3.2%)
[1]; [10]
  Ki: 126 nM

## CN1CCN2c3c(cccc31)[C@@H]1CN(Cc3ccccc3O)CC[C@@H]12 [I-2, 2-(((6bR,10aS)-3-methyl-2,3,6b,9,10,10a-hexahydro-1H-pyrido[3′,4′:4,5]pyrrolo[1,2,3-de]quinoxalin-8 (7H)-yl)methyl)phenol]
[2]
  β-arrestin2 signaling agonistic activity (% in parentheses): (68.4%)
[8]
  Gq signaling agonistic activity (% in parentheses): (65.3%)
[1]; [10]
  Ki: 525 nM

## COc1ccccc1CCCN1CCC2C(C1)c1cccc3c1N2CCC3 (single isomer, unassigned) [I-18]
[1]; [11]
  Ki: 57 nM

## COc1ccccc1CCCN1CCC2C(C1)c1cccc3c1N2CCCN3C (single isomer, unassigned) [I-14]
[1]; [11]
  Ki: 28 nM

## COc1ccccc1CCN1CCC2C(C1)c1cccc3c1N2CCCN3C (single isomer, unassigned) [I-13]
[2]
  β-arrestin2 signaling agonistic activity (% in parentheses): (51.4%)
  signaling pathway selectivity at the 5-HT2A receptor (β-arrestin2 versus G protein): selectively activate the recruitment of β-arrestin2 mediated by the 5-HT2A receptor, without activating the G protein signaling pathway

## CN1CCN2c3c(cccc31)[C@@H]1CN(CCc3ccccc3O)CC[C@@H]12 [I-9, 2-(2-((6bR,10aS)-3-methyl-2,3,6b,9,10,10a-hexahydro-1H-pyrido[3′,4′:4,5]pyrrolo[1,2,3-de]quinoxalin-8 (7H)-yl)ethyl)phenol]
[2]
  β-arrestin2 signaling agonistic activity (% in parentheses): (14.4%)

## CN1CCN2c3c(cccc31)[C@@H]1CN(CCCc3ccccc3O)CC[C@@H]12 [I-11, 2-(3-((6bR,10aS)-3-methyl-2,3,6b,9,10,10a-hexahydro-1H-pyrido[3′,4′:4,5]pyrrolo[1,2,3-de]quinoxalin-8 (7H)-yl)propyl)phenol]
[2]
  β-arrestin2 signaling agonistic activity (% in parentheses): (36.8%)
[8]
  Gq signaling agonistic activity (% in parentheses): (9.7%)

## COc1cccc(CCN2CC[C@H]3[C@@H](C2)c2cccc4c2N3CCN4C)c1 [I-4]
[2]
  β-arrestin2 signaling agonistic activity (% in parentheses): (44.2%)
[8]
  Gq signaling agonistic activity (% in parentheses): (13.7%)
[1]; [10]
  Ki: 88 nM

## CN1CCN2c3c(cccc31)[C@@H]1CN(CCCC(=O)c3ccc(F)cc3)CC[C@@H]12 [lumateperone]
[9]
  patient response rate: 51.1%

## COc1ccccc1CCN1CC[C@H]2[C@@H](C1)c1cccc3c1N2CCN3C [I-3]
[2]
  β-arrestin2 signaling agonistic activity (% in parentheses): (39.0%)
[4]
  hallucinogenic effects (head-twitch response): did not induce hallucinogenic effects
[8]
  Gq signaling agonistic activity (% in parentheses): (20.2%)
[5]
  antidepressant effect in the TST (immobility time): significant antidepressant effect
[6]
  antidepressant effect in the FST (immobility time): significant antidepressant effect
[1]; [10]
  Ki: 17 nM
[7]
  affinity for the dopamine receptor, in words: weak affinity

Source: US20260224590A1 (priority 2023, published 2026)
